The numbers were not newly measured in patent publication US20120189710A1, “ANTIBACTERIAL COMPOSITIONS” (priority 2009, published 2012), which cites them from elsewhere.

Consider `C=CCSC[C@H](N)C(=O)O` [SAC, S-allyl cysteine], for which the water solubility result is “water soluble”.
